The values below come from US20260000632A1, “STRUCTURALLY MODIFIED FATTY ACIDS FOR IMPROVING GLYCEMIC CONTROL AND TREATING INFLAMMATORY BOWEL DISEASE” (Northsea Therapeutics B.V., priority 2018, published 2026).

Assay [1] has as its system active GLP-1. The experiment in a line: Active GLP-1 during oral glucose tolerance test (OGTT) and at 24 h in lean male SPD rats. In kind it is in vivo, rat. The method, then: (§1) To establish the acute effects of oral administration of Compound A and Compound B upon active GLP-1 and insulin concentrations, lean (about 300 g) male Sprague-Dawley (SPD) rats were divided into groups (n=6-8) and fed 74 and 84 mg/kg body weight of Compound A or Compound B respectively, either with or without concurrent administration of a dipeptidyl peptidase 4 (DPP-4) inhibitor 60 minutes prior to an oral glucose tolerance test (OGTT) as outlined below. Parallel groups receiving either corn oil alone (corn oil+vehicle, n=10) or corn oil and a DPP-4 inhibitor (“DPP-4 i”) (corn oil+ (DPP-4 i), n=10) were included as controls. The DPP-4 inhibitor was linagliptin.
(§2) A second oral dose of 74 and 84 mg/kg bodyweight of Compound A or Compound B respectively was administered at 240 minutes and ad lib feeding was initiated. A second dose of DPP-4 inhibitor was administered at 480 mins prior to lights out. Blood samples were collected at 24 h for measurement of active GLP-1 and insulin. All values are mean, figures depict mean values (SEM).

The test system of assay [2] is plasma insulin. The experiment in a line: Plasma insulin at 24 h in lean male SPD rats. As to conditions: Compound A 74 mg/kg or Compound B 84 mg/kg oral, non-significant. In kind it is in vivo, rat. The method, then: as §1, §2
Assay [3] concerns ob/ob mice. The experiment in a line: Chronic treatment in ob/ob mice: basal parameters after 4 weeks. In kind it is in vivo, mouse. As to conditions: 4 weeks diet admix, 4 h fast, Compound A 135, fenofibrate 100, pioglitazone 30 mg/kg bw/d, mean ± SEM; for Plasma adiponectin: control 4.3 ± 0.4; for Blood HbA1c: control 8.4 ± 0.4; for HOMA-IR: control 65.7 ± 9.8; for Plasma insulin: control 73.2 ± 13.6; for Plasma ALT: control 271.4 ± 18.8; for Blood glucose: control 380.8 ± 26.3. The method, then: (§3) Mice were fed a standard low-fat (7% w/w fat) diet. After 4-weeks, the mice were fasted for 4 hours and the effects of Compound A were assessed. Assessment of the effects of Compound A included basal levels of blood glucose, plasma insulin, HbA1c levels, and homeostatic model assessment of insulin resistance (HOMA-IR). HOMA-IR is an assessment of insulin resistance and is calculated by the following formula: fasting insulin (micro U/L)×fasting glucose […]/22.5.

The test system of assay [4] is atherogenic lipids. As to conditions: humans; cited from earlier work.
Assay [5] has as its system atherogenic lipids. As to conditions: APOE*3.CETP mice; cited from earlier work.
Assay [6] concerns ob/ob mice. The experiment in a line: Oral glucose (2 g/kg) tolerance test after 5 weeks treatment in ob/ob mice. In kind it is in vivo, mouse. As to conditions: for Plasma glucose AUC (0-120 min) / Plasma glucose, 0 min / Plasma glucose, 15 min / Plasma glucose, 30 min / Plasma glucose, 45 min / Plasma glucose, 60 min / Plasma glucose, 120 min: OGTT 2 g/kg, mean. The method, then:
as §3
After 5 weeks, an oral glucose (2 g/kg) tolerance test was performed after a 4 hour fast.

Assay [7] has as its system ob/ob mice. The experiment in a line: Glucose tolerance after 21-day treatment in high-fat diet fed ob/ob mice. As to conditions: 112 mg/kg once-daily via diet, 21 days. In kind it is in vivo, mouse. The method, then:
This study was carried out to assess the effects of chronic treatment with Compound B or Compound A on glucose tolerance in a T2DM rodent model.
For assessing the effects of Compound A, ob/ob mice were fed a high-fat diet (comprising 2% cholesterol, 40% fat (containing 18% trans-fatty acids), 20% fructose) for 15 weeks starting at age 5 weeks. […] After 21 days the mice received a 2 g/kg oral glucose load. After the oral glucose load, plasma glucose was measured at multiple time points from 0-240 minutes.

In assay [8] the test system is GLP-1. As to conditions: direct colonic delivery, rodents; cited from earlier work.
Where [9] appears, read: 15 mg/kg bw/d diet admix 5 weeks.
[10] abbreviates: 45 mg/kg bw/d diet admix 5 weeks.
Where [11] appears, read: 135 mg/kg bw/d diet admix 5 weeks.
Where [12] appears, read: reference drugs: fenofibrate 100, pioglitazone 30 mg/kg bw/d diet admix 5 weeks.

Each structure is given as a SMILES string. Where two headings read alike, the source gives them in different places.

For `CC/C=C\C/C=C\C/C=C\C/C=C\C/C=C\CCCCOC(CC)C(=O)O` (centres unmarked) [Compound A, 2-(((5Z,8Z,11Z,14Z,17Z)-icosa-5,8,11,14,17-pentaen-1-yl)oxy)butanoic acid], the “Effect on active GLP-1 concentration at 24 h versus corn oil+vehicle” value in assay [1] (in combination with DPP4 inhibitor, Compound A 74 mg/kg or Compound B 84 mg/kg oral, two doses) is recorded as “significantly (p<0.05) increased”. For the same molecule, in assay [2] (compound alone), the “Increase in plasma insulin concentration at 24 h versus corn oil+vehicle and corn oil+DPP4 inhibitor” value was 25%. Besides, the “Increase in plasma insulin concentration at 24 h versus corn oil+vehicle and corn oil+DPP4 inhibitor” value in assay [2] (in combination with DPP4 inhibitor) is 25%. Further, in assay [3], the Plasma adiponectin turned out to be 3.8 ± 0.4 µg/mL, the “Blood HbA1c” value is 4.5 ± 0.1 %, the HOMA-IR stood at 8.6 ± 3.6 and the Plasma insulin is on record as 17.6 ± 6.8 ng/mL. Moreover, in assay [3], the “Plasma ALT” value worked out at 180.6 ± 14.6 U/L and the Blood glucose is 191.5 ± 6.1 mg/dL. Moreover, the “Effect on atherogenic lipids” value in assay [4] is given as “significantly reduce atherogenic lipids”. Moreover, the “Effect on atherogenic lipids” value in assay [5] is given as “significantly reduce atherogenic lipids”. In assay [6] (setting [9]), the Plasma glucose AUC (0-120 min) amounted to 1760 mM·min; the “Plasma glucose, 0 min” value is recorded as 11.4 mM; the “Plasma glucose, 15 min” value is 37.5 mM; the “Plasma glucose, 30 min” value is 34.4 mM. Further, in assay [6] (setting [9]), the “Plasma glucose, 45 min” value is 28.0 mM; the “Plasma glucose, 60 min” value is on record as 25.5 mM; the “Plasma glucose, 120 min” value came out at 19.6 mM. Also, in assay [6] (setting [10]), the Plasma glucose AUC (0-120 min) was 1110 mM·min; the “Plasma glucose, 0 min” value is given as 13.3 mM; the “Plasma glucose, 15 min” value is given as 36.5 mM; the “Plasma glucose, 30 min” value amounted to 30.1 mM. In assay [6] (setting [10]), the “Plasma glucose, 45 min” value turned out to be 24.5 mM; the “Plasma glucose, 60 min” value stood at 21.0 mM; the “Plasma glucose, 120 min” value is given as 15.3 mM. For the same molecule, in assay [6] (setting [11]), the Plasma glucose AUC (0-120 min) came to 816 mM·min; the “Plasma glucose, 0 min” value came to 9.2 mM; the “Plasma glucose, 15 min” value came out at 27.7 mM; the “Plasma glucose, 30 min” value is recorded as 22.1 mM. Also, in assay [6] (setting [11]), the “Plasma glucose, 45 min” value was found to be 14.6 mM; the “Plasma glucose, 60 min” value is given as 13.4 mM; the “Plasma glucose, 120 min” value amounted to 12.8 mM. In addition, the “Lowering of glucose levels in oral glucose tolerance test” value in assay [6] (15, 45, 135 mg/kg bw/d diet admix 5 weeks) is reported as “dose-dependent response in lowering glucose levels”. Moreover, in assay [7], the “Glucose tolerance from 15 minutes through 90 minutes post-glucose load compared to vehicle” value is listed as “significantly improved glucose tolerance”. Also, the AUC glucose result in assay [7] (p<0.01) is “significantly reduced AUC glucose”.

Regarding `CC/C=C\C/C=C\C/C=C\C/C=C\C/C=C\C/C=C\CCC(=O)O` [DHA], the GLP-1 secretion entry in assay [8] was “able to induce GLP-1 secretion”.

`CC#CCn1c(N2CCC[C@@H](N)C2)nc2c1c(=O)n(Cc1nc(C)c3ccccc3n1)c(=O)n2C` [DPP4 inhibitor, linagliptin, reference compound]: the “Effect on active GLP-1 concentration at 24 h” value in assay [1] (corn oil+DPP4 inhibitor alone) was “no significant effect”. For the same molecule, the “Effect on active GLP-1 (AUC 0-60 mins) versus corn oil alone” value in assay [1] (corn oil+DPP4 inhibitor alone, OGTT) was “no significant effect”.

As to `CC(C)OC(=O)C(C)(C)Oc1ccc(C(=O)c2ccc(Cl)cc2)cc1` [Fenofibrate, fenofibrate, reference compound], in assay [3], the Plasma adiponectin was found to be 5.0 ± 0.4 µg/mL, the “Blood HbA1c” value was determined as 4.8 ± 0.2 %, the HOMA-IR came out at 20.3 ± 5.9 and the Plasma insulin is 35.5 ± 9.0 ng/mL. In assay [3], the “Plasma ALT” value is given as 224.0 ± 27.4 U/L and the Blood glucose was 220.3 ± 8.1 mg/dL. Also, in assay [6] (setting [12]), the Plasma glucose AUC (0-120 min) came out at 1420 mM·min; the “Plasma glucose, 0 min” value is 15.4 mM; the “Plasma glucose, 15 min” value was determined as 35.9 mM; the “Plasma glucose, 30 min” value worked out at 35.9 mM. For the same molecule, in assay [6] (setting [12]), the “Plasma glucose, 45 min” value is on record as 30.6 mM and the “Plasma glucose, 60 min” value is reported as 28.2 mM.

In the case of `CCc1ccc(CCOc2ccc(CC3SC(=O)NC3=O)cc2)nc1` (centres unmarked) [Pioglitazone, pioglitazone, reference compound], in assay [3], the “Blood HbA1c” value is 3.8 ± 0.1 %, the HOMA-IR is 2.1 ± 0.3, the Plasma insulin came to 5.7 ± 0.8 ng/mL and the “Plasma ALT” value amounted to 257.3 ± 15.5 U/L. The molecule further returned a Blood glucose in assay [3] of 147.5 ± 3.1 mg/dL. In addition, in assay [6] (setting [12]), the Plasma glucose AUC (0-120 min) was 879 mM·min; the “Plasma glucose, 0 min” value is 7.8 mM; the “Plasma glucose, 15 min” value was 24.2 mM; the “Plasma glucose, 30 min” value came out at 18.5 mM. In addition, in assay [6] (setting [12]), the “Plasma glucose, 45 min” value stood at 17.3 mM; the “Plasma glucose, 60 min” value was found to be 15.2 mM; the “Plasma glucose, 120 min” value is 10.9 mM.
